System: 6-keto-PGF1α
Experiment: 6-keto-PGF1α plasma levels in mice after lethal dose of endotoxin
Format: in vivo
Conditions: Table XI, endotoxin 60 mg/kg + Tβ4 100 μg administered simultaneously
Description: Using the same methods and materials as in examples 1-3, the effect which Tβ4 has on blood levels of IL-1α, TNF-α, PAG, Txβ2 and 6-keto-PGF1 α, which are pathological mediators of endotoxin induced lethality, was studied.

With Thymosin β4 [Tβ4] the “6-keto-PGF1α (plasma levels)” value (0.5 hr.) was 141 ± 9 pg/mL, the “6-keto-PGF1α (plasma levels)” value (1 hr) was 261 ± 23 pg/mL and the “6-keto-PGF1α (plasma levels)” value (2 hr) was 147 ± 19 pg/mL. The “6-keto-PGF1α (plasma levels)” value (3 hr) was 121 ± 13 pg/mL.

Reference: patent US5578570A, “Method of treating septic shock using thymosin β4” (The George Washington University Medical Center, priority 1994, dated 1996)
